Laboratory results taken from ChEMBL document CHEMBL1201862, “PubChem BioAssay data set” (2004).
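Tested at 5 concentrations; 48 h exposure; 96-well plates; endpoints linearly interpolated, else capped at highest concentration. Here, GI50 denotes the concentration required for 50% inhibition of growth.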 Activity calls are given as the source filed them. Cut-off read from the data, not from the text of the source: active = GI50 up to about 1.1 µM and inactive = higher.

Experiments:
Assay in all cases: NCI tumour cell line growth inhibition, 48 h
ACHN = test system: ACHN
BT-549 = test system: BT-549
CCRF-CEM = test system: CCRF-CEM
COLO 205 = test system: COLO 205
HCC 2998 = test system: HCC 2998
HL-60 = test system: HL-60
HOP-92 = test system: HOP-92
Hs-578T = test system: Hs-578T
IGROV-1 = test system: IGROV-1
K562 = test system: K562
LOX IMVI = test system: LOX IMVI
MDA-N = test system: MDA-N
MOLT-4 = test system: MOLT-4
Malme-3M = test system: Malme-3M
NCI-H23 = test system: NCI-H23
NCI/ADR-RES = test system: NCI/ADR-RES
OVCAR-4 = test system: OVCAR-4
OVCAR-5 = test system: OVCAR-5
SF-295 = test system: SF-295
SR = test system: SR

Structure (SMILES)	GI50 (ACHN)	GI50 (BT-549)	GI50 (CCRF-CEM)	GI50 (COLO 205)	GI50 (HCC 2998)	GI50 (HL-60)	GI50 (HOP-92)	GI50 (Hs-578T)	GI50 (IGROV-1)	GI50 (K562)	GI50 (LOX IMVI)	GI50 (MDA-N)	GI50 (MOLT-4)	GI50 (Malme-3M)	GI50 (NCI-H23)	GI50 (NCI/ADR-RES)	GI50 (OVCAR-4)	GI50 (OVCAR-5)	GI50 (SF-295)	GI50 (SR)
CCCC(=O)Nc1cc(C(=O)N2C[C@@H]3C[C@]34C2=CC(=O)c2[nH]cc(C)c24)n(COC)c1	5.93 µM (inactive)	8.43 µM (inactive)	0.711 µM (active)	5.93 µM (inactive)	3.28 µM (inactive)	1.79 µM (inactive)	1.4 µM (inactive)	14.5 µM (inactive)	6.52 µM (inactive)	2.33 µM (inactive)	2.62 µM (inactive)	8.65 µM (inactive)	0.807 µM (active)	2.59 µM (inactive)	1.56 µM (inactive)	13.9 µM (inactive)	8.02 µM (inactive)	34.4 µM (inactive)	19.9 µM (inactive)	0.566 µM (active)
CO/C=C(/C(=O)OC)c1ccccc1COc1cccc(C(F)(F)F)c1	3.63 µM (inactive)	6.28 µM (inactive)	0.489 µM (active)	6.61 µM (inactive)	10.8 µM (inactive)	< 0.01 µM (active)	5.65 µM (inactive)	10.3 µM (inactive)	4.57 µM (inactive)	3.76 µM (inactive)	1.16 µM (inactive)	2.54 µM (inactive)	1.01 µM (active)	1.41 µM (inactive)	2.26 µM (inactive)	5.31 µM (inactive)	8 µM (inactive)	> 100 µM (inactive)	3.3 µM (inactive)	0.646 µM (active)
COC(=O)c1c(O)ccc2c1c1c(n2Cc2ccccc2OC)C(=O)c2ccccc2C1=O	7.53 µM (inactive)	13.3 µM (inactive)	3.13 µM (inactive)	1.83 µM (inactive)	6.27 µM (inactive)	2.04 µM (inactive)	3.78 µM (inactive)	18 µM (inactive)	12.6 µM (inactive)	1.67 µM (inactive)	10.6 µM (inactive)	13.3 µM (inactive)	0.0393 µM (active)	21 µM (inactive)	14.1 µM (inactive)	6.95 µM (inactive)	11.7 µM (inactive)	21.1 µM (inactive)	18.1 µM (inactive)	0.0483 µM (active)
